From patent US9604961B2, “Histone demethylase inhibitors” (Celgene Quanticel Research, Inc., priority 2012, dated 2017)

What was measured:
Type in all cases: biochemical
Jarid1A = Jarid1A (Homo sapiens (Human), UniProt P29375); test: Jarid1A in vitro enzyme inhibition assay (TR-FRET)
Excerpt: The enzymatic assay of Jarid1A activity is based upon Time Resolved-Fluorescence Resonance Energy Transfer (TR-FRET) detection.

Jarid1B = Jarid1B (Homo sapiens (Human), UniProt Q9UGL1); test: Jarid1B in vitro enzyme inhibition assay (TR-FRET)
JMJD2C = JMJD2C (Homo sapiens (Human), UniProt Q9H3R0); test: JMJD2C in vitro enzyme inhibition assay (TR-FRET)
Protocol: Baculovirus expressed JMJD2C (GenBank Accession #BC143571, AA 2-372) was purchased from BPS Bioscience (Cat#50105).
The ability of test compounds to inhibit the activity of JMJD2C was determined in 384-well plate format under the following reaction conditions: 0.3 nM JMJD2C, 300 nM H3K9me3-biotin labeled peptide (Anaspec cat #64360), 2 μM alpha-ketoglutaric acid in assay buffer of 50 mM HEPES, pH7.3, 0.005% Brij35, 0.5 mM TCEP, 0.2 mg/ml BSA, 50 μM sodium L-ascorbate, and 2 μM ammonium iron(II) sulfate. Reaction product was determined quantitatively by TR-FRET after the addition of detection reagent Phycolink Streptavidin-allophycocyanin (Prozyme) and Europium-anti-di-methylated histone H3 lysine 9 (H3K9me2) antibody (PerkinElmer) in the presence of 5 mM EDTA in LANCE detection buffer (PerkinElmer) at a final concentration of 50 nM and 1 nM, respectively.
The assay reaction was initiated by the following: 2 μl of the mixture of 900 nM H3K9me3-biotin labeled peptide and 6 μM alpha-ketoglutaric acid with 2 μl of 11-point serial diluted inhibitor in 3% DMSO were added to each well of the plate, followed by the addition of 2 μl of 0.9 nM JMJD2C to initiate the reaction. The reaction mixture was incubated at room temperature for 30 minutes, and terminated by the addition of 6 μl of 5 mM EDTA in LANCE detection buffer containing 100 nM Phycolink Streptavidin-allophycocyanin and 2 nM Europium-anti-H3K9me2 antibody. Plates were read by EnVisionMultilabel Reader in TR-FRET mode (excitation at 320 nm, emission at 615 nm and 665 nm) after 1 hour incubation at room temperature. A ratio was calculated (665/615) for each well and fitted to determine inhibition constant (IC50).

FBXL10 = FBXL10 (Homo sapiens (Human), UniProt Q8NHM5); test: FBXL10 in vitro enzyme inhibition assay (AlphaScreen)
Protocol: Reaction product was determined quantitatively by AlphaScreen detection after the addition of detection reagents anti-H3K36me1 antibody, AlphaScreen® Streptavidin-coated Donor beads, and AlphaScreen® Protein A Acceptor beads in 50 mM HEPES, pH7.3, 10 mM NaCl, 0.005% Brij35, 5 mM EDTA, 2 mg/ml BSA to final 10 μg/ml beads.
Plates were incubated at room temperature for 40 minutes, followed by addition of 3 μl of 50 μg/ml AlphaScreen® Streptavidin-coated Donor beads and AlphaScreen® Protein A Acceptor beads in 50 mM HEPES, pH7.3, 10 mM NaCl, 0.005% Brij35, 5 mM EDTA, 2 mg/ml BSA. Plates were read by EnVisionMultilabel Reader in AlphaScreen mode after a minimum of 2 hour or up to overnight incubation at room temperature. The AlphaScreen signal for each well was used to determine inhibition constant (IC50).

Sequence of FBXL10 (Q8NHM5 1-650): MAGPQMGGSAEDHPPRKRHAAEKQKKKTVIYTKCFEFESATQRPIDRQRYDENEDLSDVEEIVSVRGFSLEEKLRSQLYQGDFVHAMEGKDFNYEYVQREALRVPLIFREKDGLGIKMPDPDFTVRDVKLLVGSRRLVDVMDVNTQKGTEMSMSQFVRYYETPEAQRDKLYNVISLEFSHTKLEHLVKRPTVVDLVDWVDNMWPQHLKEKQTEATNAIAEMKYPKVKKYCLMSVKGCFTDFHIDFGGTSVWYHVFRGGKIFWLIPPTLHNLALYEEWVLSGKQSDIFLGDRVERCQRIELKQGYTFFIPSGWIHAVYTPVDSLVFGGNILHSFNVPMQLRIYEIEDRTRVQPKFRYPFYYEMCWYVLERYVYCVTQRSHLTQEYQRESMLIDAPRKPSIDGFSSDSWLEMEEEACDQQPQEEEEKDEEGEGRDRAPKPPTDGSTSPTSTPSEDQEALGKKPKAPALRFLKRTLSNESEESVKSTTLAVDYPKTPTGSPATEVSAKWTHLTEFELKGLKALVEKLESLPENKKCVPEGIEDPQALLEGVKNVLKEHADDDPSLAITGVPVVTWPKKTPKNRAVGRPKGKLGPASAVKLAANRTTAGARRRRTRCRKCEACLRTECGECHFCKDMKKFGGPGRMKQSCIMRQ
Sequence of Jarid1A (P29375 1-1090): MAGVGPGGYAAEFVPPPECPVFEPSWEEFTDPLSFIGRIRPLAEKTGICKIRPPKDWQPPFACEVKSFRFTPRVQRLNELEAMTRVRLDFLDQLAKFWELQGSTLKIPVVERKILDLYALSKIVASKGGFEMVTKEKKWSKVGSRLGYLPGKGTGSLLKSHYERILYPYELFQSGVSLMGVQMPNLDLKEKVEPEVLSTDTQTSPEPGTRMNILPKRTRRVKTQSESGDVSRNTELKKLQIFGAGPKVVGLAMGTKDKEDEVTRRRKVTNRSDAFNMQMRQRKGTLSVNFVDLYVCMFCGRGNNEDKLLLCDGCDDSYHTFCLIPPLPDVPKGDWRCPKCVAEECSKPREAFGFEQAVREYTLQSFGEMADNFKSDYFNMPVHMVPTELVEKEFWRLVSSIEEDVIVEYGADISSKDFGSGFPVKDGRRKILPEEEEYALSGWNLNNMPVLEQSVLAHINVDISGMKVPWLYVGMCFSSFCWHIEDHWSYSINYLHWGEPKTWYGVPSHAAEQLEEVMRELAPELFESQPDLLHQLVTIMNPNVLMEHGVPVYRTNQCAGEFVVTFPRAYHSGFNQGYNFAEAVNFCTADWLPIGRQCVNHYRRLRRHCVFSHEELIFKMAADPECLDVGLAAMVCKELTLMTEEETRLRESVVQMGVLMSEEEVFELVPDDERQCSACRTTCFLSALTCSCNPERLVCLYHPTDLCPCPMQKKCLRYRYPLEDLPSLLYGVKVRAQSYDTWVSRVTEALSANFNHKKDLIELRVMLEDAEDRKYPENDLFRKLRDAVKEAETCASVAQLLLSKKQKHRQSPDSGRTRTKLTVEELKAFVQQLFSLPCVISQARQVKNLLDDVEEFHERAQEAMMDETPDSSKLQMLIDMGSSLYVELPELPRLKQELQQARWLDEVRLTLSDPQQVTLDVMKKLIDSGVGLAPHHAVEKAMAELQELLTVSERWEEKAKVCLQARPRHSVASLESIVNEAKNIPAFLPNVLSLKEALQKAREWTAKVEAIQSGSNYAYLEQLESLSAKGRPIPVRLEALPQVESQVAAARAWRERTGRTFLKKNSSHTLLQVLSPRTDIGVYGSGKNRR
Sequence of JMJD2C (Q9H3R0 2-372): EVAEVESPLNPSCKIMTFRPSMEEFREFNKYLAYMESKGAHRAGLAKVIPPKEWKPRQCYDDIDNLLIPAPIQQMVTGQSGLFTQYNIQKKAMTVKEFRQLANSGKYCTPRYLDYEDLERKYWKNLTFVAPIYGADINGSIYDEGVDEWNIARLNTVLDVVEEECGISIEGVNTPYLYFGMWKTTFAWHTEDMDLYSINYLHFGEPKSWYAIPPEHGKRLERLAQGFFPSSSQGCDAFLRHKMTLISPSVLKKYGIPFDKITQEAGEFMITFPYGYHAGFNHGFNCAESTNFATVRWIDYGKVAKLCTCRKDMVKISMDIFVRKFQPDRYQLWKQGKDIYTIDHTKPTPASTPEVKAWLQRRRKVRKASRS
Sequence of Jarid1B (Q9UGL1 2-751): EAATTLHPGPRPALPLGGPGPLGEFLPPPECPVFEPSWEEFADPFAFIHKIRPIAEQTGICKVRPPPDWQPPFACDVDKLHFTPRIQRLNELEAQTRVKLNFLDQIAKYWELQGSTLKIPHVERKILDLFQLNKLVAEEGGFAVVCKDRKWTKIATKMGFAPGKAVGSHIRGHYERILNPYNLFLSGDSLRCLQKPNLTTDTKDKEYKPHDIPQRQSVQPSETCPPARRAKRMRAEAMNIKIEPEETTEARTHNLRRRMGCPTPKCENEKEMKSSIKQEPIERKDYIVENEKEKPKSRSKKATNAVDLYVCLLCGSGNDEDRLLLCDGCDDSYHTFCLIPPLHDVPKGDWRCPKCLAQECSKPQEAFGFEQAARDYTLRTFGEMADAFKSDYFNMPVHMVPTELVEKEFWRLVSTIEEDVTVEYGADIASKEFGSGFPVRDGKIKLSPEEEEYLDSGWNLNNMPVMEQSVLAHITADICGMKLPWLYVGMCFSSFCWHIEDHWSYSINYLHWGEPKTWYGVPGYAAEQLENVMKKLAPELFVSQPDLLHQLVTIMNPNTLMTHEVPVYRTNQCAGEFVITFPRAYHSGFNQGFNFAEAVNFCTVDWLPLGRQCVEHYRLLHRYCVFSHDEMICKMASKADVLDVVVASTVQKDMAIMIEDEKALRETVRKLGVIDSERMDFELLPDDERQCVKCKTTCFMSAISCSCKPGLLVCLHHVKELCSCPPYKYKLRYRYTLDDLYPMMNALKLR

Compound: Cc1cc(O)n(-c2cc(C(=O)O)ccn2)n1 [Example 1, 2-(5-hydroxy-3-methyl-1H-pyrazol-1-yl)isonicotinic acid]
- IC50 (Jarid1A): 0.1 to 1 µM
- IC50 (Jarid1B): < 0.1 µM
- IC50 (JMJD2C): 0.1 to 1 µM
- IC50 (FBXL10): 0.1 to 1 µM

Compound: Cc1nn(-c2cc(C(=O)O)ccn2)c(O)c1C [Example 3, 2-(5-hydroxy-3,4-dimethyl-1H-pyrazol-1-yl)isonicotinic acid]
- IC50 (Jarid1A): 0.1 to 1 µM
- IC50 (Jarid1B): < 0.1 µM
- IC50 (JMJD2C): 0.1 to 1 µM
- IC50 (FBXL10): 0.1 to 1 µM

Compound: Cc1nn(-c2cc(C(=O)O)ccn2)c(O)c1-c1ccccc1 [Example 4, 2-(5-hydroxy-3-methyl-4-phenyl-1H-pyrazol-1-yl)isonicotinic acid]
- IC50 (Jarid1A): 1 to 10 µM
- IC50 (Jarid1B): 1 to 10 µM
- IC50 (JMJD2C): 1 to 10 µM
- IC50 (FBXL10): 0.1 to 1 µM

Compound: O=C(O)c1ccnc(-n2nc(-c3ccccc3F)cc2O)c1 [Example 5, 2-(3-(2-fluorophenyl)-5-hydroxy-1H-pyrazol-1-yl)isonicotinic acid]
- IC50 (Jarid1A): 1 to 10 µM
- IC50 (Jarid1B): 1 to 10 µM
- IC50 (JMJD2C): 1 to 10 µM
- IC50 (FBXL10): < 0.1 µM

Compound: CCCc1cc(O)n(-c2cc(C(=O)O)ccn2)n1 [Example 6, 2-(5-hydroxy-3-propyl-1H-pyrazol-1-yl)isonicotinic acid]
- IC50 (Jarid1A): 0.1 to 1 µM
- IC50 (Jarid1B): 0.1 to 1 µM
- IC50 (JMJD2C): 0.1 to 1 µM
- IC50 (FBXL10): 0.1 to 1 µM

Compound: O=C(O)c1ccnc(-n2nc(-c3ccccc3Cl)cc2O)c1 [Example 7, 2-(3-(2-chlorophenyl)-5-hydroxy-1H-pyrazol-1-yl)isonicotinic acid]
- IC50 (Jarid1A): 1 to 10 µM
- IC50 (Jarid1B): 1 to 10 µM
- IC50 (JMJD2C): > 10 µM
- IC50 (FBXL10): < 0.1 µM

Compound: O=C(O)c1ccnc(-n2nc(Cc3ccccc3)cc2O)c1 [Example 8, 2-(3-benzyl-5-hydroxy-1H-pyrazol-1-yl)isonicotinic acid]
- IC50 (Jarid1A): 0.1 to 1 µM
- IC50 (Jarid1B): 0.1 to 1 µM
- IC50 (JMJD2C): 1 to 10 µM
- IC50 (FBXL10): < 0.1 µM

Compound: COCc1cc(O)n(-c2cc(C(=O)O)ccn2)n1 [Example 9, 2-(5-hydroxy-3-(methoxymethyl)-1H-pyrazol-1-yl)isonicotinic acid]
- IC50 (Jarid1A): 0.1 to 1 µM
- IC50 (Jarid1B): 0.1 to 1 µM
- IC50 (JMJD2C): 1 to 10 µM
- IC50 (FBXL10): < 0.1 µM

Compound: O=C(O)c1ccnc(-n2nc(COc3ccccc3)cc2O)c1 [Example 10, 2-(5-hydroxy-3-(phenoxymethyl)-1H-pyrazol-1-yl)isonicotinic acid]
- IC50 (Jarid1A): 1 to 10 µM
- IC50 (Jarid1B): 0.1 to 1 µM
- IC50 (JMJD2C): > 10 µM
- IC50 (FBXL10): < 0.1 µM

Compound: O=C(O)c1ccnc(-n2nccc2O)c1 [Example 11, 2-(5-hydroxy-1H-pyrazol-1-yl)isonicotinic acid]
- IC50 (Jarid1A): < 0.1 µM
- IC50 (Jarid1B): < 0.1 µM
- IC50 (JMJD2C): 0.1 to 1 µM
- IC50 (FBXL10): 0.1 to 1 µM

Compound: COc1cc(Br)ccc1COc1ccnn1-c1cc(C(=O)O)ccn1 [Example 143, 2-[5-[(4-bromo-2-methoxyphenyl)methoxy]pyrazol-1-yl]pyridine-4-carboxylic acid]
- IC50 (Jarid1A): < 0.1 µM
- IC50 (Jarid1B): < 0.1 µM
- IC50 (JMJD2C): 0.1 to 1 µM

Compound: Cc1cc(I)ccc1COc1ccnn1-c1cc(C(=O)O)ccn1 [Example 144, 2-[5-[(4-iodo-2-methylphenyl)methoxy]pyrazol-1-yl]pyridine-4-carboxylic acid]
- IC50 (Jarid1A): < 0.1 µM
- IC50 (Jarid1B): < 0.1 µM
- IC50 (JMJD2C): 0.1 to 1 µM

Compound: COc1cc(I)ccc1COc1ccnn1-c1cc(C(=O)O)ccn1 [Example 145, 2-[5-[(4-iodo-2-methoxyphenyl)methoxy]pyrazol-1-yl]pyridine-4-carboxylic acid]
- IC50 (Jarid1A): < 0.1 µM
- IC50 (Jarid1B): < 0.1 µM
- IC50 (JMJD2C): 0.1 to 1 µM

Compound: O=C(O)c1ccnc(-n2nccc2OC2CCc3cc(F)ccc32)c1 (stereo not drawn) [Example 146, 2-[5-[(5-fluoro-2,3-dihydro-1H-inden-1-yl)oxy]pyrazol-1-yl]pyridine-4-carboxylic acid]
- IC50 (Jarid1A): 0.1 to 1 µM
- IC50 (Jarid1B): 0.1 to 1 µM
- IC50 (JMJD2C): 0.1 to 1 µM

Compound: O=C(O)c1ccnc(-n2nccc2OC2CCc3cc(Cl)ccc32)c1 (stereo not drawn) [Example 147, 2-[5-[(5-chloro-2,3-dihydro-1H-inden-1-yl)oxy]pyrazol-1-yl]pyridine-4-carboxylic acid]
- IC50 (Jarid1A): 0.1 to 1 µM
- IC50 (Jarid1B): 0.1 to 1 µM
- IC50 (JMJD2C): 1 to 10 µM

Compound: O=C(O)c1ccnc(-n2nccc2OC2CCCc3cc(F)ccc32)c1 (stereo not drawn) [Example 148, 2-[5-[(6-fluoro-1,2,3,4-tetrahydronaphthalen-1-yl)oxy]pyrazol-1-yl]pyridine-4-carboxylic acid]
- IC50 (Jarid1A): 0.1 to 1 µM
- IC50 (Jarid1B): 0.1 to 1 µM
- IC50 (JMJD2C): 1 to 10 µM

Compound: O=C(O)c1ccnc(-n2nccc2OC2CCCc3cc(Cl)ccc32)c1 (stereo not drawn) [Example 149, 2-[5-[(6-chloro-1,2,3,4-tetrahydronaphthalen-1-yl)oxy]pyrazol-1-yl]pyridine-4-carboxylic acid]
- IC50 (Jarid1A): 0.1 to 1 µM
- IC50 (Jarid1B): < 0.1 µM
- IC50 (JMJD2C): 1 to 10 µM

Compound: CCc1ccc(COc2ccnn2-c2cc(C(=O)O)ccn2)c(Cl)c1 [Example 150, 2-[5-[(2-chloro-4-ethylphenyl)methoxy]pyrazol-1-yl]pyridine-4-carboxylic acid]
- IC50 (Jarid1A): 0.1 to 1 µM
- IC50 (Jarid1B): 0.1 to 1 µM
- IC50 (JMJD2C): 1 to 10 µM

Compound: CCc1ccc(COc2ccnn2-c2cc(C(=O)O)ccn2)c(F)c1 [Example 151, 2-[5-[(4-ethyl-2-fluorophenyl)methoxy]pyrazol-1-yl]pyridine-4-carboxylic acid]
- IC50 (Jarid1A): 0.1 to 1 µM
- IC50 (Jarid1B): < 0.1 µM
- IC50 (JMJD2C): 1 to 10 µM

Compound: O=C(O)c1ccnc(-n2nccc2OCc2ccc(C3CC3)cc2Cl)c1 [Example 152, 2-[5-[(2-chloro-4-cyclopropylphenyl)methoxy]pyrazol-1-yl]pyridine-4-carboxylic acid]
- IC50 (Jarid1A): 0.1 to 1 µM
- IC50 (Jarid1B): 0.1 to 1 µM
- IC50 (JMJD2C): 1 to 10 µM

Compound: O=C(O)c1ccnc(-n2nccc2OCc2ccc(C3CC3)cc2F)c1 [Example 153, 2-[5-[(4-cyclopropyl-2-fluorophenyl)methoxy]pyrazol-1-yl]pyridine-4-carboxylic acid]
- IC50 (Jarid1A): 0.1 to 1 µM
- IC50 (Jarid1B): 0.1 to 1 µM
- IC50 (JMJD2C): 1 to 10 µM

Compound: O=C(O)c1ccnc(-n2nccc2OCc2ccc(C3CC3)c(Cl)c2)c1 [Example 154, 2-[5-[(3-chloro-4-cyclopropylphenyl)methoxy]pyrazol-1-yl]pyridine-4-carboxylic acid]
- IC50 (Jarid1A): 0.1 to 1 µM
- IC50 (Jarid1B): 0.1 to 1 µM
- IC50 (JMJD2C): 1 to 10 µM

Compound: O=C(O)c1ccnc(-n2nccc2OCc2ccc(C3CC3)c(F)c2)c1 [Example 155, 2-[5-[(4-cyclopropyl-3-fluorophenyl)methoxy]pyrazol-1-yl]pyridine-4-carboxylic acid]
- IC50 (Jarid1A): 0.1 to 1 µM
- IC50 (Jarid1B): < 0.1 µM
- IC50 (JMJD2C): 1 to 10 µM

Compound: CN(CCc1cnn(-c2cc(C(=O)NC#N)ccn2)c1)Cc1ccc(F)cc1 [Example 157, N-cyano-2-[4-[2-[(4-fluorophenyl)methyl-methylamino]ethyl]pyrazol-1-yl]pyridine-4-carboxamide]
- IC50 (Jarid1A): < 0.1 µM
- IC50 (Jarid1B): < 0.1 µM
- IC50 (JMJD2C): < 0.1 µM

Compound: O=C(O)c1ccnc(-n2nc(Cc3c(F)cccc3F)cc2O)c1 [Example 161, 2-[3-[(2,6-difluorophenyl)methyl]-5-hydroxypyrazol-1-yl]pyridine-4-carboxylic acid]
- IC50 (JMJD2C): 1 to 10 µM
- IC50 (FBXL10): < 0.1 µM

Compound: CC(c1ccccc1)c1cc(O)n(-c2cc(-c3nnn[nH]3)ccn2)n1 (stereo not drawn) [Example 166, 5-(1-phenylethyl)-2-[4-(1H-tetrazol-5-yl)pyridin-2-yl]pyrazol-3-ol]
- IC50 (JMJD2C): 1 to 10 µM
- IC50 (FBXL10): < 0.1 µM

Compound: Oc1cc(Cc2ccccc2Cl)nn1-c1cc(-c2nnn[nH]2)ccn1 [Example 167, 5-[(2-chlorophenyl)methyl]-2-[4-(1H-tetrazol-5-yl)pyridin-2-yl]pyrazol-3-ol]
- IC50 (JMJD2C): 1 to 10 µM
- IC50 (FBXL10): < 0.1 µM

Compound: Oc1cc(Cc2cccc(Cl)c2)nn1-c1cc(-c2nnn[nH]2)ccn1 [Example 168, 5-[(3-chlorophenyl)methyl]-2-[4-(1H-tetrazol-5-yl)pyridin-2-yl]pyrazol-3-ol]
- IC50 (JMJD2C): 1 to 10 µM
- IC50 (FBXL10): < 0.1 µM

Compound: CC(C)(c1ccc(Cl)cc1)c1cc(O)n(-c2cc(C(=O)O)ccn2)n1 [Example 170, 2-[3-[2-(4-chlorophenyl)propan-2-yl]-5-hydroxypyrazol-1-yl]pyridine-4-carboxylic acid]
- IC50 (JMJD2C): 1 to 10 µM
- IC50 (FBXL10): < 0.1 µM

Compound: O=C(O)c1ccnc(-n2nc(C3(c4ccc(Cl)cc4)CC3)cc2O)c1 [Example 171, 2-[3-[1-(4-chlorophenyl)cyclopropyl]-5-hydroxypyrazol-1-yl]pyridine-4-carboxylic acid]
- IC50 (JMJD2C): 1 to 10 µM
- IC50 (FBXL10): < 0.1 µM

Compound: O=C(O)c1ccnc(-n2nc(Cc3cc(Cl)cc(Cl)c3)cc2O)c1 [Example 172, 2-[3-[(3,5-dichlorophenyl)methyl]-5-hydroxypyrazol-1-yl]pyridine-4-carboxylic acid]
- IC50 (JMJD2C): 1 to 10 µM
- IC50 (FBXL10): 0.1 to 1 µM

Compound: Cc1cc(F)ccc1Cc1cc(O)n(-c2cc(C(=O)O)ccn2)n1 [Example 173, 2-[3-[(4-fluoro-2-methylphenyl)methyl]-5-hydroxypyrazol-1-yl]pyridine-4-carboxylic acid]
- IC50 (JMJD2C): 1 to 10 µM
- IC50 (FBXL10): < 0.1 µM

Compound: Cc1ccc(Cc2cc(O)n(-c3cc(C(=O)O)ccn3)n2)c(F)c1 [Example 174, 2-[3-[(2-fluoro-4-methylphenyl)methyl]-5-hydroxypyrazol-1-yl]pyridine-4-carboxylic acid]
- IC50 (JMJD2C): 1 to 10 µM
- IC50 (FBXL10): < 0.1 µM

Compound: O=C(O)c1ccnc(-n2nc(Cc3ccc(F)cc3F)cc2O)c1 [Example 175, 2-[3-[(2,4-difluorophenyl)methyl]-5-hydroxypyrazol-1-yl]pyridine-4-carboxylic acid]
- IC50 (JMJD2C): 1 to 10 µM
- IC50 (FBXL10): < 0.1 µM
